Measurements reported in ChEMBL document CHEMBL1154684, “Cytotoxicity of new n-butylamino and sulfur-containing derivatives of polyfluorinated 1,4-naphthoquinone” (Eur J Med Chem, 2010).
Values after ≈ are worked out from the molar mass of the structure shown. Active and inactive are the calls of the source. The calls are words filed in the database; no cut-off is given here.

Columns and labels:
RPMI-8226 [1] = test: Cytotoxicity against human RPMI8226 at 25 ug/ml after 72 hrs by MTT assay; format: functional; conditions: RPMI-8226, 72 h
MCF7 [2] = test: Cytotoxicity against human MCF7 at 25 ug/ml after 72 hrs by MTT assay; format: functional, cell-based; conditions: MCF7, 72 h
Salmonella typhimurium [3] = test: Antimutagenic activity in Salmonella Typhimurium TA102 assessed as inhibition of H2O2-induced mutagenesis at 0.05 to […] after 48 hrs by Ames test; format: functional, organism-based; conditions: Salmonella enterica subsp. enterica serovar Typhimurium
Salmonella typhimurium [4] = test: Antimutagenic activity in Salmonella Typhimurium TA102 assessed as inhibition of H2O2-induced mutagenesis at 23.5 uM after 48 hrs by Ames test; format: functional, Salmonella enterica subsp. enterica serovar Typhimurium; conditions: Salmonella enterica, TA102, 48 h
Salmonella typhimurium [5] = test: Antimutagenic activity in Salmonella Typhimurium TA102 assessed as inhibition of H2O2-induced mutagenesis at 26.9 uM after 48 hrs by Ames test; format: functional, organism-based, Salmonella enterica subsp. enterica serovar Typhimurium
RPMI-8226 [6] = test: Cytotoxicity against human RPMI8226 after 72 hrs by MTT assay; format: functional, cell-based
MCF7 [7] = test: Cytotoxicity against human MCF7 after 72 hrs by MTT assay; format: functional, cell-based
[8] = Cytotoxicity against mouse LMTK at 173 uM after 72 hrs by MTT assay

Structure (SMILES)	inhibition at 25 µg/mL (RPMI-8226 [1]) [%]	inhibition at 25 µg/mL (MCF7 [2]) [%]	Activity (Salmonella typhimurium [3])	inhibition at 23.5 µM (Salmonella typhimurium [4]) [%]	Inhibition (Salmonella typhimurium [5]) [%]	IC50 (RPMI-8226 [6]) [µg/mL]	IC50 (MCF7 [7]) [µg/mL]	IC50 [8]
CCCCNC1=C(F)C(=O)c2c(F)c(NCCCC)c(F)c(NCCCC)c2C1=O	30	45	Active	55				
CCCCNC1=C(F)C(=O)c2c(F)c(NCCCC)c(F)c(F)c2C1=O	17	10	Active		81			
CC1=C(SCCO)C(=O)c2c(F)c(F)c(F)c(F)c2C1=O						14.8 (≈ 46.2 µM)	173 (≈ 540 µM)	Not Active
